pIC50: −log10 of the molar value.
Molecular target: T1, D(4) dopamine receptor (Homo sapiens, UniProt P21917)
T1 sequence (P21917 whole entry): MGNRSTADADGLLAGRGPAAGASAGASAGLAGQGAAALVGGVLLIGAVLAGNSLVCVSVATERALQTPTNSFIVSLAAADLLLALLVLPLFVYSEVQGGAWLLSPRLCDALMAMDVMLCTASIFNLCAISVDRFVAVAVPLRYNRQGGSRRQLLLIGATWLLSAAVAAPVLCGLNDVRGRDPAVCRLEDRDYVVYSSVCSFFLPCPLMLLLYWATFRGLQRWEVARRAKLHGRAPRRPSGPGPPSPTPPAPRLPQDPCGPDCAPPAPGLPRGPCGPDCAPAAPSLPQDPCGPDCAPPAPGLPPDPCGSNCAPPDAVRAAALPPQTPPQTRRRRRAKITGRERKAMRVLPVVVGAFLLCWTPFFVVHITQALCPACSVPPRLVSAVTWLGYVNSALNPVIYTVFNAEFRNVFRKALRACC
Test: Receptor Binding Assay: Determination of binding to D4.4 receptor was performed using [3H]-YM-09151-2 (70-87 Ci/mmol, 0.3 nM), as a radioligand, in the presence of various concentrations of the tested compound. Reactions were carried out in 50 mM TRIS-HCl (pH 7.4) containing 5 mM MgCl2, 5 mM EDTA, 5 mM KCl and 1.5 mM CaCl2, for 60 minutes at 22° C. The reaction was terminated by rapid vacuum filtration onto glass fiber filters.

SMILES: O=c1[nH]c(CN2CCN(c3ccccc3O)CC2)nc2ccccc12
- pIC50: 5.00

Reference: ChEMBL document CHEMBL3886740, “Heterocyclic compounds and uses thereof in the treatment of sexual disorders” (2016)
